The record followed here is patent US20230219963A1, “PYRROLO[2,3-D]PYRIMIDINE DERIVATIVES” (Pfizer Inc., priority 2020, published 2023).

Molecules are shown by their SMILES.

Format in all cases: cell-based
One test relates to IL-13 induced pSTAT6. The experiment in a line: IL-13-induced pSTAT6 in human keratinocytes. The settings on record: Keratinocyte, JAK1/JAK2, read-out: IL-13 induced pSTAT6, cellular potency IC50. How it is done:
(§1) Human whole blood was collected from healthy donors via vein puncture into Vacutainer collection tubes containing sodium heparin in accordance with Pfizer protocols (Protocol No. GOHW RDP-01) approved by the Shulman Institutional Review Board. Blood was warmed to 37° C. priorto use. Human whole blood was aliquoted (90 μL/well) in 96-well, deep-well, V-bottom plates and treated with compounds (5 μL/well) at different concentrations up to 60 μM (0.2% DMSO final) at 37° C. for 60 minutes. This was followed by a challenge with IFNα (5000 U/mL), IFNγ (100 ng/mL), IL-6 (50 ng/mL), IL-10 (30 ng/mL), IL-12 (30 ng/mL), IL-15 (30 ng/mL), IL-21 (50 ng/mL), IL-23 (25 ng/mL), IL-27 (1000 ng/mL), EPO (2 U/mL), TSLP (50 ng/mL) or PBS and incubated for 15 minutes. Anti-cell surface antibodies were added 15 minutes prior to cytokine stimulation; anti-CD3-BV421 (0.5 μL/well) to IL-6-treated and TSLP-treated samples and anti-CD14-BV421 (0.5 μL/well) to IFNγ-treated samples. Samples were treated with warm 1×Lyse/Fix buffer (700 μL/well) to terminate activation and further incubated at 37° C. for 20 minutes to lyse red blood cells. Plates were centrifuged at 300×g for 5 minutes, supernatant was aspirated, and cells were washed with 800 μL/well of staining buffer (D-PBS containing 0.1% FBS and 0.01% sodium azide). Washed cell pellets were resuspended in 350 μL/well of prechilled 90% methanol and incubated at 4° C. for 30 minutes. After the removal of 90% methanol, cells were washed once with staining buffer. […]
(§2) After overnight incubation at 4° C., anti-pSTAT stained samples were transferred into 96-well polypropylene U-bottom plates and flow cytometric analysis was performed on a LSR Fortessa™ equipped with a HTS plate loader. […] Background fluorescence was defined using unstimulated cells and a gate was placed at the foot of the peak to include ˜0.5% gated population. […]

The test system of the next test is IL-31 induced pSTAT3. The experiment in a line: IL-31-induced pSTAT3 in IFNγ-primed THP-1 cells. The conditions noted are these: Homo sapiens, JAK1/JAK2, read-out: IL-31 induced pSTAT3, cellular potency IC50. Here is the method:
THP-1 cells were maintained in RPMI 1640 medium containing 10% FBS, 50 μM 2 mercaptoethanol, 50 U/mL penicillin, 50 µg/mL streptomycin and 2 mM L-glutamine. THP 1 cells were treated with IFNγ (20 ng/mL) for 18 hours. IFNγ primed THP-1 cells were resuspended in fresh RPMI 1640 medium, treated with compounds (0.0003 to 20 μM) for 60 minutes, followed by stimulation with IL-31 (1 μg/mL) for additional 10 minutes. Cells were then fixed by 2% paraformaldehyde and permeabilized by 90% methanol. Fixed and permeabilized cells were stained with AlexaFluor647™ labeled anti-pSTAT3 antibody (1 to 150 dilution).
After overnight incubation at 4° C., anti-pSTAT stained samples were transferred into 96-well polypropylene U-bottom plates and flow cytometric analysis was performed on a LSR Fortessa™ equipped with a HTS plate loader. For human whole blood samples, lymphocyte population was gated for pSTAT histogram analysis for IFNα, IL-10, IL-12, IL-15, IL-21, IL-23, and IL-27-treated samples; CD14^+ cells for IFNγ-treated samples; CD3^+ cells for IL-6 and TSLP-treated samples; all events (entire populations) for EPO-treated samples. Entire populations of keratinocytes and THP-1 cells were gated for the IL-4, IL-13, IL-22 and IL-31 assays. Background fluorescence was defined using unstimulated cells and a gate was placed at the foot of the peak to include ˜0.5% gated population. Histogram statistical analysis was performed using FACSDiva version 8.0. Relative fluorescence unit, which measures the level of pSTAT, was calculated by multiplying the percent positive population and its mean fluorescence. Inhibition curves and half maximal inhibitory concentration (IC50) values were determined using Prism™ software (Version 8) or the Activity Base data analysis software (ID Business Solutions).

The subject of a further test is TSLP induced pSTAT5. As to the kind of experiment: TSLP-induced pSTAT5 in human whole blood (CD3+ cells). The conditions noted are these: JAK1/JAK2, read-out: TSLP induced pSTAT5, cellular potency IC50. How it is done: as §1, §2

With `CN(c1ncnc2[nH]ccc12)[C@H]1C[C@@H](NS(=O)(=O)CCCO)C1` [IB (M1), 3-Hydroxy-N-(cis-3-(methyl(7H-pyrrolo[2,3-d]pyrimidin-4-yl)amino)cyclobutyl)propane-1-sulfonamide], the IC50 in the test on IL-13 induced pSTAT6 came out at 236 nM; with IL-31 induced pSTAT3, 79.6 nM; with TSLP induced pSTAT5, 785 nM.

With `C[C@H](O)CS(=O)(=O)N[C@H]1C[C@@H](N(C)c2ncnc3[nH]ccc23)C1` (single isomer, unassigned) [IA (M2)], the IC50 in the test with IL-13 induced pSTAT6 came to 84.1 nM; with IL-31 induced pSTAT3, 56 nM; in the test on TSLP induced pSTAT5, 271 nM.

For orientation: IC50 means the concentration that inhibits the measured activity by half.
